Experimental findings from PMC8533206 (Antioxidants, 2021) are described below.

The subject of series [1] is PC12 cells. The experiment in a line: Cytotoxicity over PC12 cells (MTT assay). The class given is cell-based. The note with it: 24 h. The method, then:
PC12 cells were routinely maintained in RPMI-1640 media containing 100 IU/mL penicillin, and 100 μg/mL streptomycin supplemented by 10% heat-inactivated HS, 5% FBS in a humidified incubator containing 5% CO2 and 95% air at 37 °C [25]. The cell culture media was changed every two days. To perform experiments, cells were plated on poly-D-lysine/laminin-coated 24-well plates at a density of 3 × 10^5 cells/well and incubated for at least 24 h to allow cell adhesion.
To examine the effects of the test compounds on cell survival, cells were incubated in low serum media (1% HS, 1% FBS, 100 IU/mL penicillin, and 100 μg/mL streptomycin) with test compounds at the concentrations of 10 and 30 μM or an equivalent volume of vehicle control (DMSO at the final concentration of 0.3%) for 24 h. The media containing test compounds was sonicated at room temperature for 30 min to assure adequate dissolution in the media. To assess the protective effects of the test compounds on 6-OHDA- or rotenone-induced cell death in PC12 cells, cells were pre-treated with the compounds or rasagiline for 4 h. The pre-treated cells were then exposed to 6-OHDA (50 μM) or rotenone (1 μM) for 24 h.
After the desired treatment, cell viability was determined by MTT assay as described previously, with slight modification. Briefly, MTT was added to the cells at the final concentration of 0.5 mg/mL, followed by incubation for 3 h at 37 °C. The supernatants were carefully removed, and then 300 μL of DMSO was added to each well to dissolve formazan precipitate. The absorbance of the dissolved solution was measured at 550 nm using a microplate reader (SpectraMax M2e, Molecular Devices, Sunnyvale, CA, USA). The cell viability was presented as the percentage of the absorbance measured in the vehicle-treated control cells. […] Inhibition (%) = 100 × (Abssample − Abs6-OHDA or rotenone)/(Abscontrol − Abs6-OHDA or rotenone)
Background: Formazan colour is commonly taken as a measure of viable cells.

In series [2] the test system is PC12 cells. Description: Rotenone-induced ROS generation in PC12 cells (H2-DCFDA). The class given is cell-based, rat. Particulars: 10 μM compound, rotenone 1 μM 20 h. The protocol:
(§1) The involvement of oxidative stress in the observed reduction in cell viability was investigated using the fluorescent dye H2-DCFDA as described previously. Briefly, cells were loaded with 10 μM H2-DCFDA for 30 min at 37 °C. Subsequently, cells were exposed for 4 h to 10 μM of test compounds followed by the addition of 50 μM 6-OHDA or 1 μM rotenone for 20 h, and fluorescence was measured spectrophotometrically at 488/520 nm in a microplate reader (SpectraMax M2e). N-acetylcysteine (NAC, 5 mM) was included as a […] control for oxidative stress.

Series [3] concerns the target T1, Human recombinant MAO-A (hMAO-A) (Homo sapiens, UniProt P21397).
T1 construct: purchased Sigma-Aldrich; host or cells: insect cells
T1 sequence (P21397 1-527): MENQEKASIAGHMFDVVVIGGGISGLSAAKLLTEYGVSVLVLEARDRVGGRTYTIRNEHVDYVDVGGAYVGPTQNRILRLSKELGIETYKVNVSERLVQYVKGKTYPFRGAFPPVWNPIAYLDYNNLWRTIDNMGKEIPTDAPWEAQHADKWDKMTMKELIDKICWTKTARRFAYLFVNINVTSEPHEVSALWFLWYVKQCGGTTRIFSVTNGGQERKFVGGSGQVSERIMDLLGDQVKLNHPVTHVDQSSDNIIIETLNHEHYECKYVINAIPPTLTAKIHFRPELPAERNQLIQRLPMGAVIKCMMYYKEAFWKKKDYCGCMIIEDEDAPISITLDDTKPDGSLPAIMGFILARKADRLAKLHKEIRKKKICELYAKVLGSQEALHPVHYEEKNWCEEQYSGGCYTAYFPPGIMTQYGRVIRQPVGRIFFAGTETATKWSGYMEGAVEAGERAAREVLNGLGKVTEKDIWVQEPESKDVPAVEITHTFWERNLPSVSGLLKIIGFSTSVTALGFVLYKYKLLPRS
The experiment in a line: MAO-A inhibition assay (Amplex Red fluorescence, p-tyramine substrate). The series is classed as biochemical. The method, then:
The biological evaluation of the tested compounds over both MAO-A and MAO-B was performed following the previously reported method. The MAO activity was measured in relative fluorescence units (RFU) evoked by peroxidase-catalyzed oxidation of Amplex Red® to resorufin, in which H2O2 generated by MAO reaction was used as the electron donor. Human recombinant MAO-A (hMAO-A) and MAO-B (hMAO-B) enzymes expressed in insect cells were obtained from Sigma-Aldrich. The 2 μL of test compound in DMSO ([…]) was treated with 98 μL of hMAO enzyme solution in 50 mM sodium phosphate buffer (pH 7.4, final protein amounts: ~1.25 μg protein/well for MAO-A and ~2.5 μg protein/well for MAO-B) on 96-well black plate and incubated for 15 min at 37 °C. Then, 100 μL of reaction working solution which is a mixed solution of 400 μM Amplex Red® (Cayman, final concentration: 200 μM), 2 U/mL horseradish peroxidase (Sigma-Aldrich, final concentration: 1 U/mL) and 2 mM substrate (p-tyramine for MAO-A, benzylamine for MAO-B, Sigma-Aldrich, final concentration: 1 mM) in 50 mM sodium phosphate buffer (pH 7.4) were added and incubated for 20 min at 37 °C in the dark. The fluorescent intensity was quantified using a microplate reader (SpectraMax®i3, Molecular Device) with an excitation at 545 nm and an emission at 590 nm. The 50% inhibitory concentrations (IC50) of compounds were determined as the mean ± S.E.M. in triplicate from the dose-response inhibition curves using SigmaPlot® 13.0 (Systat Software Inc., San Jose, CA, USA).

Series [4] concerns PC12 cells. The experiment in a line: 6-OHDA-induced ROS generation in PC12 cells (H2-DCFDA). The class given is cell-based, rat. The note with it: 10 μM compound, 6-OHDA 50 μM 20 h. The protocol:
as §1

The nature of series [5]: DPPH radical scavenging activity (cell-free). Particulars: for DPPH radical scavenging activity (in words): cell-free, DPPH 150 µM. The protocol:
DPPH radical scavenging activities of test compounds were assessed as previously described. Briefly, the reaction mixture containing desired concentrations of test compounds and DPPH radical solution (150 µM) prepared in 95% methanol was incubated for 30 min at 37 °C. The absorbance of the mixture was measured at 520 nm in a microplate reader (SpectraMax M2e). The radical scavenging activity was calculated using the following equation:DPPH radical scavenging activity (%) = 100 × (Abscontrol − Abssample)/Abscontrol where Abscontrol and Abssample represent the absorbances in the absence and in the presence of test compounds, respectively.
On the technique in general: DPPH is a stable violet radical that fades when it is reduced.

“Also recorded” adds a separate entry of the source. A value given as a limit tells only on which side of the number the result lay.

Take `O=C(Nc1ccc(I)cc1)c1ccc2[nH]ccc2c1` [Compound 8a, N-(4-iodophenyl)-1H-indole-5-carboxamide]: the “Cytotoxic effect on PC12 cell viability” value in the series with PC12 cells [1] (10 μM) is given as “did not show any cytotoxic effects”. Further, in the series with PC12 cells [2], the “Effect on rotenone-induced intracellular ROS production” value was “not effective”. Further, in series [3], the IC50 (usually the point on the concentration scale where inhibition reaches its midpoint) is over 100 µM, the inhibition (commonly the share of the control response that was lost under treatment) at 10 µM turned out to be 17.2%, the inhibition at 30 µM stood at 21.7% and the inhibition at 100 µM was determined as 23.5%. In the series on PC12 cells [4], the “Effect on 6-OHDA-induced ROS generation” value was “not effective”.

On to `O=C(Nc1ccc2c(c1)OCO2)c1ccc2[nH]ccc2c1` [Compound 8e, N-(benzo[d][1,3]dioxol-5-yl)-1H-indole-5-carboxamide], for which the “Cytotoxic effect on PC12 cell viability” value in the series on PC12 cells [1] (10 μM) is “did not show any cytotoxic effects”. The “Effect on rotenone-induced intracellular ROS production” value with PC12 cells [2] is recorded as “attenuated”. Also, the “DPPH radical scavenging activity (in words)” value in series [5] is recorded as “mild DPPH radical scavenging activities”. Further, in series [3], the IC50 is over 100 µM, the inhibition at 10 µM is under 10%, the inhibition at 30 µM is under 10% and the inhibition at 100 µM was under 10%. In the series with PC12 cells [4], the “Effect on 6-OHDA-induced ROS generation” value was “significantly decreased”.

As for `O=C(Nc1ccc(Br)cc1)c1ccc2[nH]ccc2c1` [Compound 8b, N-(4-bromophenyl)-1H-indole-5-carboxamide], the “Cytotoxic effect on PC12 cell viability” value in the series with PC12 cells [1] (10 μM) was “did not show any cytotoxic effects”. The “Cytotoxic effect on PC12 cell viability” value in the series on PC12 cells [1] (30 μM) was “significant reduction in cell viability”. The “Effect on rotenone-induced intracellular ROS production” value in the series with PC12 cells [2] is “attenuated”. Also, the “Maximal DPPH radical scavenging effect” value in series [5] (30 and 100 µM) is listed as “approximately 10%”. The “DPPH radical scavenging activity (in words)” value in series [5] is reported as “mild DPPH radical scavenging activity; also recorded: mild DPPH radical scavenging activities”. Further, in series [3], the IC50 is over 100 µM, the inhibition at 10 µM amounted to 15.1%, the inhibition at 30 µM was found to be 27.9% and the inhibition at 100 µM is 30.1%. For the same compound, in the series with PC12 cells [4], the “Effect on 6-OHDA-induced ROS generation” value is on record as “significantly decreased”.

Take `COC(=O)c1ccc2c(ccn2C(=O)c2ccc(Cl)c(Cl)c2)c1` [Compound 7b, Methyl 1-(3,4-dichlorobenzoyl)-1H-indole-5-carboxylate]: the “Cytotoxic effect on PC12 cell viability” value in the series on PC12 cells [1] (10 μM) is on record as “did not show any cytotoxic effects”. In addition, in the series on PC12 cells [2], the “Effect on rotenone-induced intracellular ROS production” value is “attenuated”. In addition, the “DPPH radical scavenging activity (in words)” value in series [5] was “mild DPPH radical scavenging activities”. In series [3], the IC50 is over 100 µM, the inhibition at 10 µM was under 10%, the inhibition at 30 µM is under 10% and the inhibition at 100 µM was under 10%. Further, in the series with PC12 cells [4], the “Effect on 6-OHDA-induced ROS generation” value is reported as “significantly decreased”.
